Test results: ChEMBL document CHEMBL5365550, “Targeting the Inhibition of B-Cell Lymphoma 2 Protein for the Treatment of Cancer” (ACS Med Chem Lett, 2023)

Assays:
[1] = target: Apoptosis regulator Bcl-2 (Homo sapiens, UniProt P10415); test: Inhibition of human Bcl-2 expressed in Escherichia coli BL21(DE3) T1R cells preincubated under shaking condition for 1 min and measured after 3 hrs by TR-FRET assay
RS4-11 = test: Cytotoxicity against human RS4-11 cells assessed as reduction in cell viability by CellTiter-Glo assay; format: functional, cell-based
Bcl-2-like protein 1 = Bcl-2-like protein 1 (Homo sapiens, UniProt Q07817); test: Inhibition of human Bcl-xL expressed in Escherichia coli BL21(DE3) T1R cells preincubated under shaking condition for 1 min and measured after 3 hrs by TR-FRET assay
Sequence of Bcl-2-like protein 1 (Q07817 whole entry): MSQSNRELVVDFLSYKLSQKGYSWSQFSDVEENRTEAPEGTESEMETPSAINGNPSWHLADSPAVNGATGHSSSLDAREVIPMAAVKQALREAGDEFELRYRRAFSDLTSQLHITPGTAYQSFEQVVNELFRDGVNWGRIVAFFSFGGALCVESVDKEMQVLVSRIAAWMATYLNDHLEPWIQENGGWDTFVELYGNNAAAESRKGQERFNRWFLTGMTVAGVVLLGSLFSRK

MOLT-4 = test: Cytotoxicity against human MOLT-4 cells assessed as reduction in cell viability by CellTiter-Glo assay; format: functional, cell-based

Sequence of Apoptosis regulator Bcl-2 (P10415 whole entry): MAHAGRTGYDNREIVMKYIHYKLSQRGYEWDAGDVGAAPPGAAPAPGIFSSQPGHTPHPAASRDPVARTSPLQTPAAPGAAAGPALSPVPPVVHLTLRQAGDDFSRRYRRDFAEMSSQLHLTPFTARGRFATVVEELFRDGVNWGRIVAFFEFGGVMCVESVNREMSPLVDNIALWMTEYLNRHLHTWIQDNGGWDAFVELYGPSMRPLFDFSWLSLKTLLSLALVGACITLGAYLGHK

SMILES	Ki [1]	EC50 (RS4-11)	Ki (Bcl-2-like protein 1)	EC50 (MOLT-4)
CO[C@H]1C[C@H](Nc2ccc(S(=O)(=O)NC(=O)c3ccc(N4CCN5CC6=C(c7ccc(Cl)cc7)CC(C)(C)C[C@H]6OCCCOC[C@@H]5C4)cc3N3CCCOc4nc5[nH]ccc5cc43)cc2[N+](=O)[O-])C1	2.58 nM	4.1 nM	39 nM	> 10000 nM
COCC1(F)CC(CNc2ccc(S(=O)(=O)NC(=O)c3ccc(N4CCN5CC6=C(c7ccc(Cl)cc7)CC(C)(C)C[C@H]6OCCCOC[C@@H]5C4)cc3N3CCCOc4nc5[nH]ccc5cc43)cc2[N+](=O)[O-])C1 (stereo partly drawn)	0.28 nM	10.9 nM	25.8 nM	> 10000 nM
CC1(C)CC(c2ccc(Cl)cc2)=C2CN3CCN(c4ccc(C(=O)NS(=O)(=O)c5ccc(NC[C@H]6COCCO6)c([N+](=O)[O-])c5)c(N5CCCOc6nc7[nH]ccc7cc65)c4)C[C@H]3COCCCO[C@@H]2C1	0.034 nM	1.36 nM	5.76 nM	1410 nM
CO[C@H]1CC[C@H](CNc2ccc(S(=O)(=O)NC(=O)c3ccc(N4CCN5CC6=C(c7ccc(Cl)cc7)CC(C)(C)C[C@H]6OCCCOC[C@@H]5C4)cc3N3CCCOc4nc5[nH]ccc5cc43)cc2[N+](=O)[O-])OC1				1700 nM
CC1(C)CC(c2ccc(Cl)cc2)=C2CN3CCN(c4ccc(C(=O)NS(=O)(=O)c5ccc(NC[C@H]6CC[C@@](C)(O)CC6)c([N+](=O)[O-])c5)c(N5CCCOc6nc7[nH]ccc7cc65)c4)C[C@H]3COCCCO[C@@H]2C1	0.061 nM	1.47 nM	11.1 nM	117 nM
CC1(C)CC(c2ccc(Cl)cc2)=C2CN3CCN(c4ccc(C(=O)NS(=O)(=O)c5ccc(NC[C@H]6CC[C@H](O)CO6)c([N+](=O)[O-])c5)c(N5CCCOc6nc7[nH]ccc7cc65)c4)C[C@H]3COCCCO[C@@H]2C1		0.966 nM		823 nM
COC1(CNc2ccc(S(=O)(=O)NC(=O)c3ccc(N4CCN5CC6=C(c7ccc(Cl)cc7)CC(C)(C)C[C@H]6OCCCOC[C@@H]5C4)cc3N3CCCOc4nc5[nH]ccc5cc43)cc2[N+](=O)[O-])CCOCC1	2.09 nM	4.38 nM	40.3 nM	> 10000 nM
CC1(C)CC(c2ccc(Cl)cc2)=C2CN3CCN(c4ccc(C(=O)NS(=O)(=O)c5ccc(NC[C@H]6CC[C@](C)(O)CO6)c([N+](=O)[O-])c5)c(N5CCCOc6nc7[nH]ccc7cc65)c4)C[C@H]3COCCCO[C@@H]2C1	0.049 nM	0.651 nM	9.3 nM	1220 nM
CC1(C)CC(c2ccc(Cl)cc2)=C2CN3CCN(c4ccc(C(=O)NS(=O)(=O)c5cnc(OCC6(F)CCOCC6)c(Cl)c5)c(N5CCCOc6nc7[nH]ccc7cc65)c4)C[C@H]3COCCCO[C@@H]2C1		5.46 nM	> 661 nM	> 10000 nM
CC1(C)CC(c2ccc(Cl)cc2)=C2CN3CCN(c4ccc(C(=O)NS(=O)(=O)c5ccc(NCC6(O)CCOCC6)c([N+](=O)[O-])c5)c(N5CCCOc6nc7[nH]ccc7cc65)c4)C[C@H]3COCCCO[C@@H]2C1	0.223 nM	1.43 nM	8.31 nM	426 nM
CC1(C)CC(c2ccc(Cl)cc2)=C2CN3CCN(c4ccc(C(=O)NS(=O)(=O)c5ccc(NC[C@H]6CC[C@](C)(O)CC6)c(Cl)c5)c(N5CCCOc6nc7[nH]ccc7cc65)c4)C[C@H]3COCCCO[C@@H]2C1	0.085 nM	17.7 nM	29.7 nM	> 10000 nM
